Laboratory results from US9890126B2 (priority 2012, dated 2018).
Where two headings read alike, the source gives them in different places. Marks after values point to notes of the source that are not given here.

What was measured:
IspF = IspF (Burkholderia pseudomallei, UniProt Q3JRA0); test: biochemical; assay type: binding
[1] = relative to DMSO control, 0.00 = growth with inhibitor equal to or greater than DMSO control

Chain of IspF (Q3JRA0 whole entry, looked up): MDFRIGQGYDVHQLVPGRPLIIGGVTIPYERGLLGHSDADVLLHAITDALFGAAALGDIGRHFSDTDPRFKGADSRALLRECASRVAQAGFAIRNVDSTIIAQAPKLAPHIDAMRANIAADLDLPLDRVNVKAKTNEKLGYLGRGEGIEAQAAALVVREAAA

Row | SMILES | % Growth Inhibition Endpoint (24 h) (Burkholderia; [1]) | also measured
1 | Cn1cncc1C(O)c1ccccc1 (centres unmarked) [HGN-0031] |  | % Growth Inhibition Growth Curve (Burkholderia; [1]): 0.00^b %
2 | CCOC(=O)c1cnc(NCc2ccco2)[nH]c1=O [HGN-0047, Ethyl 2-((furan-2-ylmethyl)amino)-6-oxo-1,6-diydropyrimidine-5-carboxylate] | 0.00^b % | 
3 | O=C([O-])c1cnc(Nc2ccc3[nH]ncc3c2)nc1[O-].[Na+].[Na+] [HGN-0046, Sodium 2-((1H-indazol-5-yl)amino)-4-oxoidopyrimidine-5-carboxylate] | 15.12 ± 4.25% | Kd (IspF; pH 7.4): non specific
4 | CC(c1ccccc1)C(O)c1nccn1-c1ccccc1 (centres unmarked) [HGN-0062] |  | Kd (IspF; pH 7.4): no binding
5 | CC(C)n1cncc1-c1ccc(O)cc1 [HGN-0018] |  | Kd (IspF; pH 7.4): no binding
6 | O=C([O-])c1cnc(Nc2ccc(N3CCCCC3)cc2)nc1[O-].[Na+].[Na+] [HGN-0036] | 22.38 ± 21.24% | 
7 | O=C([O-])c1cnc(Nc2cccc(-c3ccccc3)c2)nc1[O-].[Na+].[Na+] [HGN-0044, Sodium 2-([1,1′-biphenyl]-3-ylamino)-4-oxidopyrimidine-5-carboxylate] | 1.48 ± 7.90% | 
8 | CCOC(=O)c1cnc(NCc2cccc(Cl)c2)[nH]c1=O [HGN-0123] | 0.00^b % | 
9 | CCOC(=O)c1cnc(NCc2ccccc2Cl)[nH]c1=O [HGN-0121] | 0.00^b % | 
10 | O=C([O-])c1cnc(NCC2CCCO2)nc1[O-].[Na+].[Na+] (centres unmarked) [HGN-0050] | 32.99 ± 9.22% | 
11 | O=C([O-])c1cnc(NCCc2cccc(F)c2)nc1[O-].[Na+].[Na+] [HGN-0116] | 20.46 ± 3.47% | 
12 | Oc1ccc(-c2cncn2Cc2ccc(Cl)c(Cl)c2)cc1 [HGN-0092] | 25.41 ± 2.79% | 
13 | NC(=O)c1c[nH]nc1NC(=O)c1cnc2sccn12 [HGN-0010] | 7.22 ± 4.24% | 
14 | Cn1ccnc1C(O)Cc1ccccc1 (centres unmarked) [HGN-0061] |  | Kd (IspF; pH 7.4): no binding
15 | CCOC(=O)c1cnc(Nc2ccc(N3CCCCC3)cc2)[nH]c1=O [HGN-0034, ethyl 6-oxo-2-((4-(piperidin-1-yl)phenyl)amino)-1,6-dihydropyrimidine-5-carboxylate] | 86.20 ± 0.16% | 
16 | Oc1ccc(-c2cncn2CCc2cccc(F)c2)cc1 [HGN-0097] | 4.27 ± 14.54% | 
17 | COc1cc(-c2cncn2CCc2c[nH]c3ccccc23)ccc1O [HGN-0137] | 0.00^b % | 
18 | Nc1ccn([C@@H]2O[C@H](CNC(=O)Cc3cn4ccsc4n3)[C@@H](O)[C@H]2O)c(=O)n1 [HGN-0102] | 0.00^b % | 
19 | O=C([O-])c1cnc(NCc2ccccc2F)nc1[O-].[Na+].[Na+] [HGN-0134] | 26.05 ± 6.37% | 
20 | Oc1ccc(CCn2cncc2-c2ccc(O)cc2)cc1 [HGN-0048] |  | Kd (IspF): 486 µM
21 | Oc1ccc(-c2cncn2Cc2ccc(Cl)cc2)cc1 [HGN-0094] |  | % Growth Inhibition Endpoint (24 h) (Burkholderia; cells printing symbol L): L^c
22 | O=C([O-])c1cnc(NCc2cccc(Cl)c2)nc1[O-].[Na+].[Na+] [HGN-0124] | 30.67 ± 2.67% | 
23 | CCOC(=O)c1cnc(NCc2ccc(F)cc2)[nH]c1=O [HGN-0113] | 0.00^b % | 

Row | SMILES | % Growth Inhibition Endpoint (24 h) (Burkholderia; [1]) | also measured
24 | NC(=O)c1c[nH]nc1NC(=O)c1c[nH]c2ncccc12 [HGN-0002] |  | Kd (IspF; pH 7.4): not soluble
25 | Oc1ccc(-c2cncn2Cc2ccccc2F)cc1 [HGN-0106] | 33.79 ± 16.09% | 
26 | CCOC(=O)c1cnc(NCc2cc(Cl)ccc2Cl)[nH]c1=O [HGN-0127] | 3.47 ± 2.20% | 
27 | NC(=O)c1c[nH]nc1NC(=O)c1cncs1 [HGN-0004] | 0.00^b % | 
28 | Nc1ccn([C@@H]2O[C@H](CNC(=O)c3ccnc4nc[nH]c34)[C@@H](O)[C@H]2O)c(=O)n1 [HGN-0007] | 0.00^b % | 
29 | Oc1ccc(-c2cncn2CCc2ccc(Cl)cc2Cl)cc1 [HGN-0099] | 0.00^b % | 
30 | Oc1ccc(-c2cncn2Cc2cccc(F)c2)cc1 [HGN-0109] | 24.77 ± 10.79% | 
31 | Oc1ccc(-n2ccnc2)cc1 [HGN-0056] |  | Kd (IspF; pH 7.4): no binding
32 | CCOC(=O)c1cnc(NCCc2ccccc2Cl)[nH]c1=O [HGN-0119] | 0.00^b % | 
33 | Oc1ccc(-c2cncn2Cc2cccc(Cl)c2)cc1 [HGN-0090] |  | % Growth Inhibition Endpoint (24 h) (Burkholderia; cells printing symbol L): L^c
34 | Nc1ccn([C@@H]2O[C@H](CNC(=O)c3cscn3)[C@@H](O)[C@H]2O)c(=O)n1 [HGN-0008] | 0.00^b % | 
35 | NC(=O)c1c[nH]nc1NC(=O)Cc1cn2ccsc2n1 [HGN-0009] | 0.00^b % | 
36 | Oc1ccc(-c2cncn2Cc2ccco2)cc1 [HGN-0019] |  | Kd (IspF): 380 µM
37 | CCOC(=O)c1cnc(NCCc2cccc(F)c2)[nH]c1=O [HGN-0115] | 0.00^b % | 
38 | O=C([O-])c1cnc(NCCc2ccc(F)cc2)nc1[O-].[Na+].[Na+] [HGN-0112] | 19.82 ± 16.53% | 
39 | Oc1ccc(-c2cncn2CCc2ccc(Cl)c(Cl)c2)cc1 [HGN-0100] |  | % Growth Inhibition Endpoint (24 h) (Burkholderia; cells printing symbol L): L^c
40 | O=C([O-])c1cnc(NCc2ccccc2Cl)nc1[O-].[Na+].[Na+] [HGN-0122] | 23.02 ± 8.79% | 
41 | Oc1ccc(-c2cncn2CCc2ccccc2F)cc1 [HGN-0107] | 2.75 ± 2.62% | 
42 | Oc1ccc(-c2cncn2Cc2ccc(F)cc2)cc1 [HGN-0093] | 58.12 ± 2.17% | 
43 | O=C([O-])c1cnc(NCCc2ccccc2Cl)nc1[O-].[Na+].[Na+] [HGN-0120] | 80.30 ± 0.40% | 
44 | Oc1ccc(-c2cncn2CCc2c(Cl)cccc2Cl)cc1 [HGN0098] | 0.00^b % | 
45 | CCOC(=O)c1cnc(NCc2ccc(Cl)cc2)[nH]c1=O [HGN-0125] | 23.89 ± 36.14% | 
46 | CCOC(=O)c1cnc(NCc2ccc(Cl)c(Cl)c2)[nH]c1=O [HGN-0129] | 64.42 ± 2.77% | 

Row | SMILES | % Growth Inhibition Endpoint (24 h) (Burkholderia; [1]) | also measured
47 | Oc1ccc(-c2cncn2CCc2ccccc2Cl)cc1 [HGN-0096] |  | % Growth Inhibition Endpoint (24 h) (Burkholderia; cells printing symbol L): L^c
48 | OC(Cn1cnc(-c2ccccc2)c1-c1ccccc1)c1ccccc1 (centres unmarked) [HGN-0060] |  | Kd (IspF; pH 7.4): not soluble
49 | O=C([O-])c1cnc(NCc2ccc(Cl)cc2)nc1[O-].[Na+].[Na+] [HGN-0126] | 34.34 ± 3.24% | 
50 | O=C([O-])c1cnc(NCc2ccc(Cl)c(Cl)c2)nc1[O-].[Na+].[Na+] [HGN-0130] | 45.59 ± 2.35% | 
51 | CCOC(=O)c1cnc(NCCc2c(Cl)cccc2Cl)[nH]c1=O [HGN-0135] | 0.00^b % | 
52 | O=C([O-])c1cnc(NCc2cc(Cl)ccc2Cl)nc1[O-].[Na+].[Na+] [HGN-0128] | 37.46 ± 0.21% | 
53 | CCOC(=O)c1cnc(NCCc2ccc(Cl)cc2Cl)[nH]c1=O [HGN-0117] | 0.00^b % | 
54 | Oc1ccc(-c2cncn2Cc2ccccc2Cl)cc1 [HGN-0091] |  | % Growth Inhibition Endpoint (24 h) (Burkholderia; cells printing symbol L): L^c
55 | O=C([O-])c1cnc(NCc2ccc(F)cc2)nc1[O-].[Na+].[Na+] [HGN-0114] | 5.94 ± 5.46% | 
56 | CCOC(=O)c1cnc(NCCc2ccc(F)cc2)[nH]c1=O [HGN-0111] | 31.31 ± 39.32% | 
57 | Oc1ccc(-c2cncn2CCc2ccc(F)cc2)cc1 [HGN-0095] | 88.27 ± 0.48% | inhibition against Burkholderia (Burkholderia; concentration not given): 88.3%
58 | Oc1ccc(-c2cncn2CCc2cccc(Cl)c2)cc1 [HGN-0108] |  | % Growth Inhibition Endpoint (24 h) (Burkholderia; cells printing symbol L): L^c
59 | CCOC(=O)c1cnc(NCc2ccccc2F)[nH]c1=O [HGN-0133] | 0.00^b % | 
60 | Oc1ccc(-c2cncn2CCc2ccccc2)cc1 [HGN-0052] |  | Kd (IspF; pH 7.4): no binding
61 | O=C([O-])c1cnc(NCCc2ccc(Cl)c(Cl)c2)nc1[O-].[Na+].[Na+] [HGN-0132] | 72.24 ± 11.83% | 
62 | CCOC(=O)c1cnc(Nc2ccc(-c3ccncc3)cc2)[nH]c1=O [HGN-0015] |  | % Growth Inhibition Growth Curve (Burkholderia; [1]): 14.43 ± 2.38%
63 | Oc1ccc(-c2cncn2CCc2ccccc2)cc1 [HGN-0022] | 0.00^b % | 
64 | O=C([O-])c1cnc(NCCc2c(Cl)cccc2Cl)nc1[O-].[Na+].[Na+] [HGN-0136] | 16.71 ± 5.04% | 
65 | Nc1ccn([C@@H]2O[C@H](CNC(=O)c3cn4ccsc4n3)[C@@H](O)[C@H]2O)c(=O)n1 [HGN-0006] | 0.00^b % | 
66 | CCOC(=O)c1cnc(Nc2ccc(-c3ccccc3)cc2)[nH]c1=O [HGN-0033, ethyl 2-((1,1′-biphenyl)-4-ylamino)-6-oxo-1,6-dihydropyrimidine-5-carboxylate] | 5.07 ± 2.01% | 
67 | O=C([O-])c1cnc(Nc2ccc(Br)cc2)nc1[O-].[Na+].[Na+] [HGN-0014] | 15.52 ± 0.41% | 
68 | CCOC(=O)c1cnc(NCCc2ccc(Cl)c(Cl)c2)[nH]c1=O [HGN-0131] | 0.00^b % | 
69 | CCOC(=O)c1cnc(NCC2CCCO2)[nH]c1=O (centres unmarked) [HGN-0017, ethyl 6-oxo-2-(((tetrahydrofuran-2-yl)methyl)amino)-1,6-dihydropyrimidine-5-carboxylate] |  | % Growth Inhibition Growth Curve (Burkholderia; [1]): 0.00^b %
